This is an account of results in ChEMBL document CHEMBL1201862, “PubChem BioAssay data set” (2004).

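These data come from cells grown in 96-well plates and exposed to compound for 48 hours at five concentrations. GI50 = concentration required for 50% inhibition of growth.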 Active and inactive are the calls of the source. No stated cut-off is given here; in the data, active = GI50 up to about 1.1 µM and inactive = higher.

Test systems include SNB-78; XF498; DMS-114; KM-20L2; DLD-1; LXFL 529; RXF 631; M19-MEL; HOP-18.
What all share (experiment): inhibition of tumour cell growth, NCI panel, 48 h

On to `CCOC(=O)C(C)c1c(C(=O)c2ccc(C)nc2)c2ccccc2n1C` (stereo unspecified), for which the GI50 was > 100 µM (inactive) with SNB-78; 83 µM (inactive) in the assay on XF498; > 100 µM (inactive) with DMS-114; > 100 µM (inactive) with KM-20L2; > 100 µM (inactive) in the assay on DLD-1; > 100 µM (inactive) in the assay on LXFL 529. Besides, the GI50 in the assay on RXF 631 and in the assay with M19-MEL was > 100 µM (inactive) in each case.

On to `C=C(C)c1nc(Oc2ccccc2)nc(Oc2ccccc2)n1`, for which the GI50 in the assay on SNB-78 was 5.4 µM (inactive); in the assay with XF498, 1.73 µM (inactive); in the assay with DMS-114 it was 3.01 µM (inactive); with KM-20L2, 9.98 µM (inactive); in the assay with DLD-1 it was 2.72 µM (inactive); with LXFL 529 it was 2 µM (inactive). Moreover, the GI50 was 3.69 µM (inactive) in the assay on RXF 631, 2.88 µM (inactive) in the assay on M19-MEL and 16.6 µM (inactive) in the assay on HOP-18.

For the compound `Cc1cc(N(CCC#N)S(=O)(=O)c2ccccc2)ccc1/C=N/c1ccc(C(=O)O)cc1`, the GI50 in the assay on SNB-78 is 12.3 µM (inactive); in the assay with XF498, 8.71 µM (inactive); with DMS-114, 3.41 µM (inactive); with KM-20L2, 9.82 µM (inactive); in the assay with DLD-1, 1.99 µM (inactive); with LXFL 529 it was 1.76 µM (inactive). For the same compound, the GI50 in the assay on M19-MEL was 2.75 µM (inactive); in the assay with HOP-18, 3.24 µM (inactive).

For `O=C(c1ccccc1)[C@H]1Nc2ccc(Cl)cc2[C@H]2CCC[C@@H]12`, the GI50 in the assay on SNB-78 was 51.3 µM (inactive); in the assay with XF498, 17.1 µM (inactive); in the assay on DMS-114, 23.6 µM (inactive); in the assay on KM-20L2, 26.9 µM (inactive); in the assay with DLD-1 it was 21.8 µM (inactive); in the assay on LXFL 529 it was 17.9 µM (inactive). For the same compound, the GI50 is 36.1 µM (inactive) in the assay on RXF 631, 27.6 µM (inactive) with M19-MEL and 12.3 µM (inactive) in the assay on HOP-18.

In the case of `Cc1nc([N+](=O)[O-])cn1CC(=N)N`, the GI50 with DMS-114, in the assay on KM-20L2, with DLD-1, with LXFL 529, with RXF 631 and with M19-MEL was > 100 µM (inactive) in each case.

For `Cc1cc(N(CCC#N)CCC#N)ccc1/N=N/c1ccc(S(N)(=O)=O)cc1`, the GI50 in the assay with SNB-78 was > 100 µM (inactive); in the assay on XF498 it was 0.0413 µM (active); in the assay with DMS-114, > 100 µM (inactive); in the assay with DLD-1, > 100 µM (inactive); in the assay on LXFL 529 it was > 100 µM (inactive); in the assay with RXF 631, > 100 µM (inactive). The GI50 with HOP-18 is 51.1 µM (inactive).

For `CCCCCCCCCCCCCCCCCC(=O)OCC(CN(C)CCN(C)C)OC(=O)CCCCCCCCCCCCCCCCC` (stereo unspecified), the GI50 with SNB-78 is > 100 µM (inactive); in the assay on DMS-114, 46.1 µM (inactive); in the assay with KM-20L2, > 100 µM (inactive); with DLD-1, 89.7 µM (inactive); in the assay with LXFL 529, 72.4 µM (inactive); in the assay with RXF 631, 55.5 µM (inactive). In the assay with HOP-18, the GI50 is 20.6 µM (inactive).

Turning to `CCOC(=O)C1=C(NC)OC/C1=N\NC(=O)c1ccccc1O`, the GI50 was 96.6 µM (inactive) in the assay with SNB-78; 56.4 µM (inactive) in the assay with XF498; 20.7 µM (inactive) in the assay with DMS-114; 39.7 µM (inactive) with KM-20L2; 17.6 µM (inactive) in the assay on DLD-1; 39.8 µM (inactive) in the assay on LXFL 529. The GI50 in the assay with M19-MEL was 29.9 µM (inactive); in the assay with HOP-18, 14.8 µM (inactive).

With `COc1ccc(OC(=O)CC2Cc3cc(OC)c(OC)c(OC)c3-c3ccc(SC)c(=O)cc32)cc1` (stereo unspecified), the GI50 in the assay with XF498 was 0.258 µM (active); with DMS-114 it was 0.348 µM (active); in the assay on KM-20L2, 0.169 µM (active); with DLD-1, 0.344 µM (active); in the assay with LXFL 529, 0.217 µM (active); with RXF 631 it was 0.281 µM (active). Moreover, the GI50 with M19-MEL was 5.74 µM (inactive).

As for `CSC(SC)=C1Sc2cccc(Cl)c2S1`, the GI50 was > 100 µM (inactive) with SNB-78; 29.9 µM (inactive) in the assay with XF498; 26.4 µM (inactive) in the assay with DMS-114; 36.9 µM (inactive) in the assay on KM-20L2; 45.2 µM (inactive) with DLD-1; 69.8 µM (inactive) in the assay on LXFL 529. In addition, the GI50 in the assay with M19-MEL is 43.5 µM (inactive); in the assay on HOP-18, > 100 µM (inactive).

For the compound `CCOc1ccccc1NC(=O)C(C#N)C1=C(Cl)C(=O)c2ccccc2C1=O` (stereo unspecified), the GI50 in the assay with SNB-78 is 3.32 µM (inactive); in the assay on XF498 it was 2.29 µM (inactive); with DMS-114, 0.743 µM (active); in the assay with KM-20L2, 1.93 µM (inactive); in the assay with DLD-1, 1.85 µM (inactive); in the assay with LXFL 529, 1.85 µM (inactive). The GI50 in the assay with RXF 631 is 2.09 µM (inactive); in the assay with M19-MEL, 0.177 µM (active); in the assay on HOP-18, 1.5 µM (inactive).

For the compound `NC(=O)/C(=N\NC(=O)c1cc2ccccc2cc1O)C1C(=O)N(c2ccccc2)N=C1N` (stereo unspecified), the GI50 in the assay on SNB-78 was 69.8 µM (inactive); in the assay on XF498 it was 37.6 µM (inactive); in the assay with DMS-114 it was 20.4 µM (inactive); with KM-20L2, 32.9 µM (inactive); in the assay with DLD-1 it was 34 µM (inactive); in the assay with LXFL 529, 59.3 µM (inactive). In addition, the GI50 was 37.3 µM (inactive) with RXF 631, 30.6 µM (inactive) in the assay with M19-MEL and 17.5 µM (inactive) with HOP-18.

Regarding `S=P1(c2ccccc2)Nc2ccc(Cl)cc2N1` (stereo unspecified), the GI50 was 23.5 µM (inactive) with SNB-78; > 100 µM (inactive) in the assay on XF498; 26.6 µM (inactive) in the assay on DMS-114; > 100 µM (inactive) in the assay on KM-20L2; > 100 µM (inactive) in the assay on DLD-1; 17.6 µM (inactive) in the assay with LXFL 529. For the same compound, the GI50 in the assay on RXF 631 was 85.7 µM (inactive); in the assay with M19-MEL it was 14.2 µM (inactive); in the assay with HOP-18, > 100 µM (inactive).

As to `O=C(O)C1=CCCc2ccc3ccccc3c21`, the GI50 in the assay with SNB-78, with XF498, in the assay with DMS-114, with KM-20L2, in the assay on LXFL 529 and in the assay with RXF 631 was > 100 µM (inactive) throughout. Besides, the GI50 in the assay with M19-MEL is > 100 µM (inactive); with HOP-18 it was 21.6 µM (inactive).

For the compound `COc1cccc(NC(=O)CC(=O)N2N=C(N3c4ccccc4Sc4ccccc43)CC2c2ccccc2)c1` (stereo unspecified), the GI50 in the assay on SNB-78, in the assay on XF498, in the assay with DMS-114, with KM-20L2, with DLD-1 and in the assay on LXFL 529 was > 100 µM (inactive) in each case. For the same compound, the GI50 was > 100 µM (inactive) in the assay on M19-MEL and 9.48 µM (inactive) in the assay on HOP-18.

For `O=C1/C(=C/c2ccc(Cl)cc2)CCC1CN1CCOCC1` (stereo unspecified), the GI50 in the assay on SNB-78 was 12.5 µM (inactive); with XF498, 2.55 µM (inactive); with DMS-114, 22.8 µM (inactive); in the assay on KM-20L2, 10.7 µM (inactive); with DLD-1 it was 2.52 µM (inactive); in the assay on LXFL 529 it was 2.58 µM (inactive). Further, the values for the GI50 in the assay with RXF 631 and with HOP-18 were 8.36 µM (inactive) and 13.9 µM (inactive), respectively.

`O=C1C=CC(=C(c2ccc(O)cc2)c2ccc(O)cc2)C=C1` [AURIN]: the GI50 is 5.11 µM (inactive) in the assay on SNB-78; 11.7 µM (inactive) in the assay on XF498; 2.4 µM (inactive) with DMS-114; 16.5 µM (inactive) in the assay with KM-20L2; 10.3 µM (inactive) in the assay with DLD-1; 3.18 µM (inactive) with LXFL 529. Further, the GI50 is 15 µM (inactive) in the assay with RXF 631 and 16.4 µM (inactive) with HOP-18.
